Measured values reported in PMC6842385, “Identifying new topoisomerase II poison scaffolds by combining publicly available toxicity data and 2D/3D-based virtual screening” (Journal of Cheminformatics, 2019).

System: T1, Top2
T1 construct: gene TOP2A; Top2 used in TopoGEN decatenation assay
Assay: kDNA decatenation assay, agarose gel
Assay type: biochemical
Details: kinetoplast DNA 0.2 μg in 20 μl, 5 mM ATP, 10 mM MgCl2, 150 mM NaCl, pH 8.0, 37 °C, 30 min
Excerpt: kDNA decatenation assay, agarose gel on Top2

Row | SMILES | IC50 | IC50 (positive control)
1 | O=C1c2c(O)ccc(O)c2C(=O)c2c(NCCNCCO)ccc(NCCNCCO)c21 [compound 301739, mitoxantrone] | – | 3.3 µM
2 | CCN(CC)CCNc1ccc2nc(C)n3c4ccc(O)cc4c(=O)c1c23 [compound 637992, NSC637992] | 3.3 µM | –
3 | CCN(CC)CCNc1ccc2ncn3c4c(OC)ccc(OC)c4c(=O)c1c23 [compound 660839, NSC660839] | > 100 µM | –

The remaining molecules from weak to strong by IC50, led by results:

Row | IC50 | SMILES | IC50 (positive control)
4 | 12.1 µM | COc1cccc2c(N)c3cccc(C(=O)NCCN(C)C)c3nc12 [compound 691240, NSC691240] | –
5 | 7.5 µM | CCN(CC)CCNc1ccc(C)c2sc3ccc(O)cc3c(=O)c12 [compound 317921, NSC317921] | –
